What was measured:
[1] = tested on: Smad DNA-binding activity; experiment: Electrophoretic mobility shift assay, Smad binding element (SBE), 3T3 nuclear extracts; type: cell-based, mouse; settings: 15 minute TGF-β treatment alone
Experimental: (A) Cells were harvested and subjecting to electrophoretic mobility shift analysis using a Smad binding element (SBE). […] Where indicated, extracts were prepared with 100-fold higher levels of cold competitor probe. (B) Cells were subjected to 24 hour treatments with geldanamycin at various concentrations and extracts prepared and bound to control Oct-1-binding duplex oligos to monitor non-specific effects of geldanamycin.
Protein concentrations of extracts were determined using the BCA reagent (Pierce). […] The probes were end-labeled using γ-^32P-ATP and T4 polynucleotide kinase. Electrophoretic mobility shift assays (EMSA) were performed using 5 μg nuclear extract, 1 μl poly dI/dC (1 mg/ml), 0.1 ng of labeled probe (in 1 μl), and buffer G to achieve a final volume of 10 μl. Buffer G consists of 20 mM Hepes (pH 7.6), 100 mM KCl, 0.2 mM EDTA and 20% glycerol. Extracts and oligo were incubated 15 minutes at room temperature before adding loading buffer and running on a non-denaturing gel.
Electrophoretic mobility shift assays were performed to examine whether geldanamycin reduced the level of Smad DNA-binding activity in nuclear extracts. As before, cells were also subjected to TGF-β or TGF-β and geldanamycin together. […]

[2] = tested on: TGF-β-sensitive promoter in the 3TPlux construct; experiment: TGF-β-sensitive 3TPlux luciferase reporter in transfected NIH 3T3 cells; type: cell-based, mouse; settings: NIH 3T3, TGF-β by itself, 24 hour
Experimental: (§1) The latter contains a 4.5 kb fragment of the PN1 promoter driving the luciferase gene. Cells were incubated for 24 hours after transfection, washed 3 times with PBS and then subjected to a 24 hour treatment with geldanamycin, TGF or both, as indicated. Cells were then harvested and luciferase activities determined; Transient transfections were performed using lipofectamine (Gibco BRL) as follows: 10 μg (total) of indicated plasmid DNA was mixed with 30 μl of lipofectamine and 500 μl of serum-free DMEM (Gibco). This mixture was incubated at room temperature for 20 minutes. Ten cm dishes of sub-confluent 3T3 fibroblasts were rinsed with PBS, and 5 ml of serum free DMEM added to each dish. The DNA/lipofectamine mixture was added to each dish and incubated in the 37° CO2 incubator for 4 hours. Ten ml of DMEM with 15% serum was added and plates were incubated overnight. Medium was replaced with 10% serum at 24 hours and extracts of cells were harvested at 48 hours. Cell extracts were obtained using Passive Lysis Buffer (Promega) and assays were performed according to the Promega protocol for pGL3 luciferase vectors. Protein concentrations of all extracts were determined and each luciferase reading is normalized for protein concentration. The 4.7 kb human MMP1 promoter driving luciferase was a gift of Constance Brinckerhoff (Dartmouth Medical School) (36). […]

[3] = tested on: endogenous collagen transcript in mouse 3T3 cells; experiment: Northern analysis of endogenous α1(I) collagen message, NIH 3T3 fibroblasts; type: cell-based; settings: TGF-β alone, 24 hour
Experimental: FIGS. 7A-7C show fibroblasts subjected to 24-hour treatments with geldanamycin, TGF or both. After 24 hours, total RNA was harvested and subjected to northern analysis using an α1(I) collagen probe. (A) Northern analysis using NIH 3T3 fibroblasts. (B) Northern analysis using primary healthy human dermal fibroblasts. (C) Methylene blue staining of the filter in (B). Numbers represent relative intensities of the lower collagen band after normalizing bands to GAPDH band intensity; The clone corresponding to Hsp90-α was purchased as an EST from Genome Systems. […] Sequencing was performed at the Boston University DNA/Protein Sequencing Core. Northern analysis of Hsp90 to total RNA from scleroderma and healthy fibroblasts was performed as previously described (10). Geldanamycin was a generous gift of the National Cancer Institute. Geldanamycin was dissolved in dimethylsulfoxide (DMSO) and used at a final concentration of 2 μM except where indicated otherwise. DMSO without geldanamycin was added as the carrier control for all experiments using geldanamycin. The chaperone function of Hsp90 is dependent on the hydrolysis of ATP (44). […] Geldanamycin was examined to determine whether its inhibition of Hsp90 affected TGF-β activation of collagen transcription in mouse 3T3 and human dermal fibroblasts. Endogenous collagen message levels were used as a measure of TGF-β signal transduction. […]

PN1 promoter = experiment: Protease nexin 1 (PN1) promoter luciferase reporter in transfected NIH 3T3 cells; type: cell-based, mouse; settings: NIH 3T3, TGF-β alone, 24 hour
Experimental: as §1

nuclear Smad after TGF-β treatment [1]: modest increase
Substance: TGF-β
induction of the activity of the 3TPlux promoter [2]: 3.5 fold
increase of endogenous collagen transcript level ([3]; NIH 3T3, absence of serum): approximately 6 fold
increase of endogenous collagen transcript level ([3]; NIH 3T3, presence of serum): 2 fold
effect of TGF-β on the expression of the PN1 promoter (PN1 promoter): little effect
